The target in one data set is LsrK (Salmonella typhimurium, UniProt Q8ZKQ6). Nature of the data set: biochemical. It is filed as biochemical, S. typhimurium.
For data set [1] the following is noted: cited from earlier work.
In a further data set the test system is E. coli LW7 pLW11. The experiment in a line: AI-2 QS interference assay. Type of data set: cell-based.
The test system of data set [2] is His-tagged control peptide or SDS denatured His-LsrK. Nature of the data set: MST assay, specificity controls. It is filed as binding.
The target in data set [3] is T1, His-LsrK (Salmonella typhimurium, UniProt Q8ZKQ6). Nature of the data set: Thermal shift assay. Type of data set: binding, S. typhimurium. Particulars: dose range of test compound. On the procedure:
Compounds were added to qPCR plates by Echo acoustic dispenser with a DMSO backfill to maintain a constant final concentration of DMSO in each well (the assay is tolerant up to 8% DMSO with no effect on Tm of LsrK). LsrK protein was added at a concentration of 1 µg per well in a volume of 10 µL with 1× Thermo thermal shift dye or 5× Sypro Orange dye (used for aurin tricarboxylic acid as this compound fluoresces with Thermo dye in 25 mM TEA, 200 µM MgCl2, pH 7.1). Appropriate DMSO-only negative controls and 1 mM ATP/DMSO positive controls were included in each test occasion. Using an Applied Biosystems Quant Studio 5 qPCR machine (Thermo Fisher Scientific, Waltham, MA, USA) the following thermal shift protocol was used: step 1—hold at 25 °C for 1 min; step 2—heat at 0.05 °C/s dissociation then hold at 99 °C for 1 min. Filter setting for Thermo dye: Ex/Em 580/623 nm and for Sypro Orange dye: Ex/Em 470/520 nm.

The test system of a further data set is E. coli pBAC-lacZ. Nature of the data set: Control strain β-gal assay (QS-independent lac promoter). Type of data set: cell-based.
For data set [4], the target named is T1, His-LsrK. The experiment in a line: MST assay. Type of data set: binding, S. typhimurium. Particulars: 95% CI.

Several values for one entry are separate records, joined by “and”; a condition that tells them apart may be missing. Identical values can stand only once.

By IC50 is commonly meant the concentration that inhibits the measured activity by half. For orientation: inhibition means the drop in the measured response relative to a control, in per cent. The Kd is the concentration at which binding is half-saturated.

T1 sequence (Q8ZKQ6 whole entry): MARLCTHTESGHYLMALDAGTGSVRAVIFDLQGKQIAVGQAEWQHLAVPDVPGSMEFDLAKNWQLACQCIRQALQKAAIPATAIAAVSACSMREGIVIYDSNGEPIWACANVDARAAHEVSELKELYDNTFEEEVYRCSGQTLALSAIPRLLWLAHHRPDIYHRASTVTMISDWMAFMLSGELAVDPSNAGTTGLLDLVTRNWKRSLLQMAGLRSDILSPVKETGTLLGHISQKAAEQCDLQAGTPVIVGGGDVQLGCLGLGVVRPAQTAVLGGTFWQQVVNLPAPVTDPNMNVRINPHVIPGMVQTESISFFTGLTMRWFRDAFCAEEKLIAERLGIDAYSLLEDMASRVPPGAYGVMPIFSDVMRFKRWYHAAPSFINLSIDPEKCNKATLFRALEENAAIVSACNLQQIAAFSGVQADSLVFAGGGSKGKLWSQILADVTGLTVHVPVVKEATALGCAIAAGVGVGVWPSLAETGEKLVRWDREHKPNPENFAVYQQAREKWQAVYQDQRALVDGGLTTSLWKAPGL
Sequence of LsrK (Q8ZKQ6 whole entry): as above

Take `CC1=C(O)C(=O)C=C2C1=CC=C1[C@@]2(C)CC[C@@]2(C)[C@@H]3C[C@](C)(C(=O)O)CC[C@]3(C)CC[C@]12C` [CELASTROL]: at LsrK, half-maximal inhibition (IC50) required 4 µM and the inhibition at 50 µM was 109%. Besides, the solubility entry in data set [1] is listed as “poor solubility”.

Regarding `O=C1C=CC(=C(c2ccc(O)cc2)c2ccc(O)cc2)C=C1` [ROSOLIC ACID], the “inhibition of AI-2 mediated QS” value in the data set with E. coli LW7 pLW11 (50 µM, in the presence of PAβN) is “nearly complete inhibition”. For the same compound, the inhibition at 10 µM with E. coli LW7 pLW11 (Escherichia coli, 10 µM, in the presence of PAβN, read-out: inhibition of AI-2 mediated QS) amounted to 68%. The concentration for half-maximal inhibition (IC50) in the data set on E. coli LW7 pLW11 (Escherichia coli, dose-response in the presence of PAβN, read-out: IC50 AI-2 QS inhibition) stood at 11 µM. Also, on LsrK, the IC50 came to 1 µM and the inhibition at 50 µM came to 119%. Besides, the “binding in MST to control peptide or SDS denatured His-LsrK” value in data set [2] is on record as “No binding”. Moreover, the “shift in the Tm of His-LsrK (in words)” value at His-LsrK [3] is “positively stabilizes His-LsrK in thermal shift at high concentrations”. Besides, in the data set with E. coli pBAC-lacZ, the “effect on β-gal expression or activity in the control strain” value is on record as “marginally affected”. The Kd at His-LsrK [4] was 100 µM and ~100 µM.

These data come from article PMC6627609, “Targeting Quorum Sensing: High-Throughput Screening to Identify Novel LsrK Inhibitors” (International Journal of Molecular Sciences, 2019).
